Measured values published in US20100261770A1, “PHARMACEUTICAL COMPOSITION FOR IMPROVING LOWER URINARY TRACT SYMPTOMS” (ASTELLAS PHARMA INC., priority 2007, published 2010).
Structures can show the parent of a compound that is named as a salt.

System: rats with bladder outlet obstruction
Assay: Effect on premicturition contraction in rats with bladder outlet obstruction
Type: in vivo
Conditions: iv; for inhibition of the premicturition contraction frequency (single use, ground for dose setting): 0.3 mg(/mL)/kg for the acetanilide compound, 0.001 mg(/mL)/kg for the sulfonamide hydrochloride; for ratio of the premicturition contraction frequency relative to the pre-administration value: drug A 0.3 mg/mL/kg, drug B 0.001 mg/mL/kg, AB combination at both doses, first micturition reflex after administration, 5 animals per group; for significant inhibition of the premicturition contraction (frequency): single use at 0.3 mg/kg or 0.001 mg/kg, or both combined, combination compared to any other groups
Protocol: The rats were fixed to a dorsal position under pentobarbital anesthesia (50 mg/kg ip), and a catheter (PE-20) was inserted into the bladder from the external urethral orifice. A midline incision was made in the lower abdominal wall, and the proximal urethra, together with the catheter, was tied at two sites with a silk suture (5-0), then, the catheter was removed and the surgical wound was sutured, and then ampicillin (150 mg/kg sc) as an antibiotic was administered to the animals which were then housed in a breeding cage. On the 11th to 12th day after the surgery, a midline incision was made in the lower abdominal wall under pentobarbital anesthesia (50 mg/kg ip), and the silk sutures tying the urethra were removed. The bladder was exposed, followed by drainage of urine, and a catheter (PE-50) was inserted into the bladder from the apical part the bladder and fixed. The other end of this catheter was lead to the outside from the posterior cervical region and then the surgical wound was sutured. In addition, a catheter (PE-50) for the drug administration was inserted into the jugular vein, and then the other end thereof was lead to the outside from the posterior cervical region. Ampicillin (150 mg/kg sc) was administered to the animals which were then returned to a breeding cage. Two to three days later, the rats were retained in a Bollman cage. The catheter inserted into the bladder was connected to a three-way stopcock valve, and one end was connected to a syringe pump (STC-525) and micturition reflex was induced by continuous infusion of physiological saline [3.6 to 12 mL/h (adjusted to achieve a voiding interval of 20 to 40 minutes)]. In addition, the other end was connected to a pressure transducer (TP-400T), and intravesical pressure was measured with a pressure amplifier (AP-601G). The premicturition contraction frequency [evaluated for 10 minutes prior to micturition reflex (maximum intravesical pressure); a contraction showing a drop of 1 cmH2O or more after a rise of 2 cmH2O or more was evaluated as one time] after the stabilization of micturition reflex by continuous infusion of physiological saline for 2 hours or more was taken as a pre-administration value. Vehicle or each drug was intravenously administered after intravesical pressure was lowered to a baseline, and the premicturition contraction frequency in the first micturition reflex was taken as a post-administration value, and evaluated by a ratio (%) relative to the pre-administration value. Drugs for the four groups examined are as follows. Evaluation was carried out using 5 animals for each group.

SMILES	inhibition of the premicturition contraction frequency (single use, ground for dose setting)	ratio of the premicturition contraction frequency relative to the pre-administration value [%]	significant inhibition of the premicturition contraction (frequency)
Nc1nc(CC(=O)Nc2ccc(CCNC[C@H](O)c3ccccc3)cc2)cs1 [drug A, (R)-2-(2-aminothiazol-4-yl)-4′-{2-[(2-hydroxy-2-phenylethyl)amino]ethyl}acetanilide]	about 15%	85.0	not recognized
CCOc1ccccc1OCCN[C@H](C)Cc1ccc(OC)c(S(N)(=O)=O)c1 [drug B, (R)-5-(2-{[2-(2-ethoxyphenoxy)ethyl]amino}propyl)-2-methoxybenzene-1-sulfonamide hydrochloride]	about 15%	84.8	not recognized
